Values of other authors as cited in patent publication US8431724B2, “Iejimalid analoga and uses thereof” (Studiengesellschaft Kohle mbH, priority 2007, dated 2013).

Legend:
P388 leukemia = conditions: Kobayashi's report
[1] = system: panel of 60 standard human cancer cell lines; conditions: NCI dataset 2005

| Molecule | in vivo activity against P388 leukemia (P388 leukemia) | GI50 [1] | TGI [1] |
| --- | --- | --- | --- |
| CO[C@@H]1/C=C(C)/C=C/[C@@H](C)/C=C/C(=O)O[C@H](/C(C)=C/C=C(\C)CNC(=O)[C@H](COS(=O)(=O)[O-])NC=O)[C@@H](C)/C=C/C=C/[C@@H](OC)CC/C=C(C)\C=C\C1.[Na+] [compound 3, Iejimalide C] | potent in vivo activity | – | – |
| CO[C@@H]1/C=C(C)/C=C/[C@@H](C)/C=C(\C)C(=O)O[C@H](/C(C)=C/C=C(\C)CNC(=O)[C@H](COS(=O)(=O)[O-])NC=O)[C@@H](C)/C=C/C=C/[C@@H](OC)CC/C=C(C)\C=C\C1.[Na+] [compound 4, Iejimalide D] | potent in vivo activity | – | – |
| Iejimalide A | – | low nanomolar range | low nanomolar range |
